Experiments:
in vivo = details: rat
[1] = effect exerted on motility, on rats (spontaneous passings in shuttle-box); assay type: in vivo, rat
Method: II/4. Determination of effect exerted on motility, on rats
The test is carried out in a Shuttle-box without introducing current and light. The number of spontaneous passings over from side of the box to the other is registered and summarized by the apparatus for an observation period of 30 minutes. The test is carried out on groups comprising […] CFY rats of both sexes weighing […]. The test compound of the Formula I is added prior to the test subcutaneously, together with tetrabenazine and desmethyl-imiprmine (DMI) reference compounds, respectively.

[2] = tested on: rabbit pulmonary artery, tyramine-induced noradrenaline release; details: for IC50: read-out: IC50, inhibition of noradrenaline releasing effect of tyramine
[3] = tested on: tetrabenazine-induced depression; experiment: antagonism of tetrabenazine-induced depression in learning test: shuttle-box test; assay type: in vivo, rat; details: N = 12
Text: (§1) II/3 Determination of antagonism of tetrabenazine-induced depression, in learning test, on rats
Method: B. Knoll, J. Knoll: Pol. J. Pharmacol. Pharm. 34, 17-23 (1982).
According to this test depression caused by tetrabenazine can be antagonized by the compounds of the Formula I. In Table 3 the numerical values of the series of test carried out by using the compound according to Example 7 are disclosed.

[4] = effect exerted on food intake, in rats; assay type: in vivo, rat
[5] = psychostimulant effect in rats: shuttle-box test; assay type: in vivo, rat
[6] = tested on: noradrenaline uptake, nucleus free supernatant of rat cortex; experiment: 3H-noradrenaline uptake in the nucleus free supernatant of rat cortex; assay type: biochemical; details: 37° C., 5 minutes
Method: II/7. Determination of ^3 H-noradrenaine uptake in the nucleus free supernatant of rat cortex (in vivo)
The cortex is homogenized in 0.32M saccharose with a teflon potter, the cell nucleus is sedimented by centrifuging at 0° C. with 1000 g for 20 minutes; the supernatant thus obtained is used for the test. The intake is accomplished in a KrebsHeinseleit solution saturated with carbogen, in a final volume of 1 ml, at a ^3 H-noradrenaline concentration of […]. Pre-incubation and incubation are carried out at 37° C. for 5 minutes each. The reaction is stopped by adding 4 ml of ice-cold Krebs solution and the tissue is separated by GF/B filtration. Non-specific uptake is determined by using 10^-4 M nisoxetine at 37° C. The radioactivity of the GF/B filter-paper is determined by liquid scintillation measurement in a toluene-PPO-POPOPtritone mixture.

[7] = tested on: tetrabenazine-induced depression; experiment: antagonism of tetrabenazine-induced depression in learning test: jumping test; assay type: in vivo, rat
Text: as §1
a) Jumping test. Method: J. Knoll, B. Knoll: Arzneimittel Forschung 8, 339 (1958), 9, 633 (1959).

isolated rat striatum [8] = experiment: dopaminergic activity increasing effect on isolated rat striatum preparations, ex vivo
Method: (§2) Determination of the dopamineric activity increasing effect, on isolated rat striatum preparations
(§3) Method: Kerecsen et al: Chromatography, the State of the Art, (Eds. Kalasz, Ettre) Akademiai Kiaoo Budepest (1985) page 195-203.
In ex vivo tests the animals are treated s.c. for 3 weeks and the organ is removed 2 hours after administering the last injection.

isolated rat striatum [9] = experiment: dopaminergic activity increasing effect on isolated rat striatum preparations, in vitro
Text: as §2, §3

[10] = 10 mg/kg s.c., 30 minutes observation
[11] = 1st day, tetrabenazine 0.5 mg/kg + 10 mg/kg compound, s.c. daily
[12] = 2nd day, tetrabenazine 0.5 mg/kg + 10 mg/kg compound, s.c. daily
[13] = 3rd day, tetrabenazine 0.5 mg/kg + 10 mg/kg compound, s.c. daily
[14] = 4th day, tetrabenazine 0.5 mg/kg + 10 mg/kg compound, s.c. daily
[15] = 5th day, tetrabenazine 0.5 mg/kg + 10 mg/kg compound, s.c. daily
[16] = 1st day, tetrabenazine 0.5 mg/kg s.c. daily
[17] = 2nd day, tetrabenazine 0.5 mg/kg s.c. daily
[18] = 3rd day, tetrabenazine 0.5 mg/kg s.c. daily
[19] = 4th day, tetrabenazine 0.5 mg/kg s.c. daily
[20] = 5th day, tetrabenazine 0.5 mg/kg s.c. daily

## CCCNC(Cc1ccccc1)Cc1ccccc1.Cl [Example 5, N-propyl-1,3-diphenyl-2-propylamine-hydrochloride]
In vivo; sc
  LD50: > 150 mg/kg
  mortality: 0%
[1]; [10]
  motility: do increase motility

## CCCCC(Cc1ccccc1)NC(C)Cc1ccccc1 (centres unmarked) [Example 12]
In vivo; iv
  LD50: 16 mg/kg
In vivo; sc
  LD50: > 25 mg/kg
[2]
  IC50: 3.46 µM

## COCCNC(C)Cc1ccccc1 (centres unmarked) [Example 7, N-(2-methoxyethyl)-1-phenyl-2-propyl-amine]
[3]; [11]
  F+ = % of animals showing a conditioned reaction: 34.60%
  IR = number of intersignal reactions: 10.50
  f+ = % of animals responding to unconditioned stimulus: 49.80%
  f- = % of animals which do not respond even to unconditioned stimulus: 16.40%
[3]; [12]
  F+ = % of animals showing a conditioned reaction: 62.20%
  IR = number of intersignal reactions: 14.70
  f+ = % of animals responding to unconditioned stimulus: 21.00%
  f- = % of animals which do not respond even to unconditioned stimulus: 16.80%
[3]; [13]
  F+ = % of animals showing a conditioned reaction: 69.20%
  IR = number of intersignal reactions: 21.30
  f+ = % of animals responding to unconditioned stimulus: 9.80%
  f- = % of animals which do not respond even to unconditioned stimulus: 21.00%
[3]; [14]
  F+ = % of animals showing a conditioned reaction: 64.90%
  IR = number of intersignal reactions: 14.30
  f+ = % of animals responding to unconditioned stimulus: 17.70%
  f- = % of animals which do not respond even to unconditioned stimulus: 17.40%
[3]; [15]
  F+ = % of animals showing a conditioned reaction: 76.10%
  IR = number of intersignal reactions: 16.80
  f+ = % of animals responding to unconditioned stimulus: 8.50%
  f- = % of animals which do not respond even to unconditioned stimulus: 15.40%
In vivo; sc
  LD50: > 200 mg/kg
  mortality: 0%
[2]
  IC50: 14.1 µM

## CCCNC(Cc1ccccc1)c1ccccc1.Cl (centres unmarked) [Example 3, N-propyl-1,2-diphenyl-ethylamine-hydrochloride]
In vivo; sc
  LD50: 75 mg/kg
  mortality: 0%
[1]; [10]
  motility: do not increase motility
[2]
  IC50: 7.47 µM

## CCCC(Cc1ccccc1)NCCCO (centres unmarked) [Example 2, N-(3-hydroxypropyl)-1-phenyl-2-pentylamine]
In vivo; iv
  LD50: 50 mg/kg
In vivo; sc
  LD50: > 200 mg/kg
  mortality: 0%
[2]
  IC50: 0.368 µM

## CCCCCCC(Cc1ccccc1)NCCC (centres unmarked) [Example 13]
In vivo; sc
  LD50: > 50 mg/kg
  mortality: 0%
[2]
  IC50: 0.501 µM

## CCCNC(CCC)Cc1ccccc1 (centres unmarked) [Example 4, N-propyl-1-phenyl-2-pentylamine]
In vivo; iv
  LD50: 27 mg/kg
In vivo; po
  LD50: 270 mg/kg
In vivo; sc
  LD50: 50 mg/kg
[1]; 1 mg/kg s.c.
  antagonism of motility inhibiting effect of 1 mg/kg of tetrabenazine: completely antagonized
[1]; [10]
  motility: do increase motility
[4]; 5 mg/kg, first hour
  food intake: decreasing effect being approximately identical with that of about 0.5 mg/kg of amphetamine
[5]; 0.5 mg/kg daily
  general motility: without signs of increased general motility
  performance over the control: significant increase of performance over the control
[5]; 15 mg/kg daily
  increase of the intersignal reactions: moderate
[5]; 15 mg/kg daily, complete test-period
  learning and retention: increased learning and retentions from the very first day
[5]; 15 mg/kg, one-week learning period, 6 weeks after termination
  maintenance of acquired performance after termination of treatment: completely maintain the performance acquired
[6]
  IC50: 0.05 µM
[2]
  IC50: 1.22 µM

## CCCNC(CC)Cc1ccccc1 (centres unmarked) [Example 6, N-propyl-1-phenyl-2-butyl-amine]
In vivo; iv
  LD50: 40 mg/kg
In vivo; po
  LD50: 300 mg/kg
In vivo; sc
  LD50: 140 mg/kg
[7]; 15 mg/kg
  antagonism of the depressive effect of tetrabenazine: entirely antagonized
[7]; 15 mg/kg (high doses)
  inhibition of the solid conditioned reflex: can not be inhibited
[1]; 2.5 mg/kg s.c.
  antagonism of motility inhibiting effect of 1 mg/kg of tetrabenazine: significantly antagonized
[1]; [10]
  motility: do not increase motility
[4]; rats fasted for 96 hours, similar dose (15 mg/kg)
  food intake: does not influence the food intake
[4]; well-fed satiated rats, 15 mg/kg p.o. or s.c.
  food intake: does not change food intake
[6]
  IC50: 0.5 µM
Isolated rat striatum [8]; daily dose 0.25, s.c. 3 weeks
  DOPAC concentration of the bath of the organ: 222 pmol/g/min
  dopamine (DA) concentration of the bath of the organ: 257 pmol/g/min
Isolated rat striatum [8]; daily dose 5.0, s.c. 3 weeks
  DOPAC concentration of the bath of the organ: 223 pmol/g/min
  dopamine (DA) concentration of the bath of the organ: 189 pmol/g/min
[2]
  IC50: 0.346 µM
Isolated rat striatum [9]; dose 0.3
  DOPAC concentration of the bath of the organ: 172 pmol/g/min
  dopamine (DA) concentration of the bath of the organ: 214 pmol/g/min
Isolated rat striatum [9]; dose 1.0
  DOPAC concentration of the bath of the organ: 190 pmol/g/min
  dopamine (DA) concentration of the bath of the organ: 366 pmol/g/min
Isolated rat striatum [9]; dose 3.0
  DOPAC concentration of the bath of the organ: 331 pmol/g/min
  dopamine (DA) concentration of the bath of the organ: 290 pmol/g/min
Isolated rat striatum [9]; dose 10.0
  DOPAC concentration of the bath of the organ: 537 pmol/g/min
  dopamine (DA) concentration of the bath of the organ: 477 pmol/g/min

## COc1cc2c(cc1OC)C1CC(=O)C(CC(C)C)CN1CC2 (centres unmarked) [tetrabenazine, reference compound]
[3]; [16]
  F+ = % of animals showing a conditioned reaction: 9.58%
  IR = number of intersignal reactions: 10.25
  f+ = % of animals responding to unconditioned stimulus: 31.25%
  f- = % of animals which do not respond even to unconditioned stimulus: 59.17%
[3]; [17]
  F+ = % of animals showing a conditioned reaction: 8.50%
  IR = number of intersignal reactions: 8.33
  f+ = % of animals responding to unconditioned stimulus: 30.75%
  f- = % of animals which do not respond even to unconditioned stimulus: 60.75%
[3]; [18]
  F+ = % of animals showing a conditioned reaction: 11.42%
  IR = number of intersignal reactions: 4.67
  f+ = % of animals responding to unconditioned stimulus: 15.83%
  f- = % of animals which do not respond even to unconditioned stimulus: 72.75%
[3]; [19]
  F+ = % of animals showing a conditioned reaction: 9.8%
  IR = number of intersignal reactions: 4.50
  f+ = % of animals responding to unconditioned stimulus: 17.83%
  f- = % of animals which do not respond even to unconditioned stimulus: 73.08%
[3]; [20]
  F+ = % of animals showing a conditioned reaction: 17.67%
  IR = number of intersignal reactions: 6.92
  f+ = % of animals responding to unconditioned stimulus: 12.58%
  f- = % of animals which do not respond even to unconditioned stimulus: 69.75%
[7]; 5 mg/kg tetrabenazine
  inhibition of the solid conditioned reflex: completely inhibited
[1]; 1 mg/kg tetrabenazine
  motility: motility inhibiting effect

## CCNC(CC)Cc1ccccc1 (centres unmarked) [Example 8]
In vivo; iv
  LD50: 46 mg/kg
In vivo; sc
  LD50: 195 mg/kg
[2]
  IC50: 1.89 µM

## CNCCCN1c2ccccc2CCc2ccccc21 [DMI, desmethyl-imiprmine, reference compound]
[1]; DMI reference
  effect on motility and on tetrabenazine induced depression of motility: inhibitory by itself rather than antagonistic against tetrabenazine induced depression of motility
[6]
  IC50: 0.001 to 0.005 µM

## CCCCC(Cc1ccccc1)NCCC (centres unmarked) [Example 11]
In vivo; sc
  LD50: 110 mg/kg
[1]; [10]
  motility: do increase motility
[4]; 5 mg/kg, first hour
  food intake: decreasing effect being approximately identical with that of about 0.5 mg/kg of amphetamine
[6]
  IC50: 0.1 µM
[2]
  IC50, inhibition of noradrenaline releasing effect of tyramine: can not be given

## C#CCN(C)[C@H](C)Cc1ccccc1 [Example 1-deprenyl, reference compound]
[6]
  IC50: 7 µM

## CCC(Cc1ccccc1)NC1CCCCC1 (centres unmarked) [Example 9]
In vivo; sc
  LD50: 160 mg/kg
[2]
  IC50: 0.799 µM

## CCCC(Cc1ccccc1)NC(C)C.Cl (centres unmarked) [Example 1, N-iso-propyl-1-phenyl-2-pentylamine-hydrochloride]
In vivo; sc
  LD50: 135 mg/kg
[2]
  IC50: 7.47 µM

## CCCC(Cc1ccccc1)NC (centres unmarked) [Example 10]
In vivo; iv
  LD50: 18 mg/kg
In vivo; sc
  LD50: 175 mg/kg
[2]
  IC50: 1.8 µM

— patent US5075338A (priority 1986, dated 1991)
